Key:
[1] = system: Helicobacter pylori SS1 (mouse colonizing strain); experiment: Antibiotic susceptibility testing by microdilution (MIC and MBC), CLSI guideline; type: cell-based; conditions: lowest concentration with no growth after spotting on antibiotic-free agar, Table 4 prints no unit (method concentrations in µg/mL)
Experimental: Helicobacter pylori SS1 (mouse colonizing strain): A strain known as Sydney strain. The strain is CagA-positive and VacA-positive and has been confirmed to infect and colonize in C57BL/6 mice. The strain is used in animal testing. The medium was prepared using Müller-Hinton broth (MH, Difco Inc., Sparks, MD, USA) [w/7% differentiation medium (Sigma CO., LTD., St. Louis, USA), 0.4% isovitalex (BBL Inc., Sparks, MD, USA)]. An antibiotic susceptibility testing was performed using the microdilution method according to the CLSI guideline. Two-fold serial dilution was performed in 12 steps in a 48-well plate with the highest concentration of 128 µg/mL for amocixillin and clarithromycin and 256 µg/mL for omeprazole. The bacteria were inoculated into wells containing only medium without antibiotics to prepare the positive control group, and the wells containing only medium without antibiotics or inoculated bacteria were used as the negative control group. The concentration range of the test substances, zastaprazan (JP-1366) and fexuprazan, was determined through preliminary experiments. […] The lowest concentration at which no bacterial growth was observed was determined as the MIC. […] The lowest concentration at which no bacteria growth occurred was determined as the MBC. […] All tests were performed in duplicate, and the results were determined by conducting the experiments in triplicate.

[2] = system: patients with erosive gastroesophageal reflux disease; experiment: Phase 3 clinical trial: healing rate of mucosal breaks in H. pylori-positive subjects; type: in vivo, human
Experimental: H. pylori testing was performed by 13C-UBT, gastroscopy (Campylobacter-like organism test, CLO), or tissue biopsy to confirm H. pylori positivity/negativity. The testing was performed at the screening visit (Visit 1) or the randomization visit (Visit 2), and results from the same institution within 29 days prior to the randomization visit (Visit 2) could be substituted. Those who voluntarily agreed to participate in this clinical trial underwent a screening test through a screening visit, and only eligible subjects were allowed to participate in the clinical trial based on the inclusion/exclusion criteria. Eligible subjects were randomly assigned to the test group or control group and received the clinical trial drug according to the assigned group at the baseline visit (V2). […] [Table 10] The cumulative healing rate of mucosal breaks according to the presence or absence of H. pylori infection refers to the proportion of subjects whose mucosal breaks were healed by 4 weeks after the administration of the clinical trial drug on endoscopic examination. The frequency and percentage of healing rates of mucosal breaks at week 4 after the administration of the clinical trial drug were presented by administration group according to the presence or absence of H. pylori infection. The differences between the administration groups (test group-control group) were analyzed using the Cochran-Mantel-Haenszel method corrected with the baseline LA classification method as a stratification factor, and the 95% confidence intervals for the differences were presented.

[3] = system: patients with erosive gastroesophageal reflux disease; experiment: Phase 2 clinical trial, randomized, double-blind, active-controlled: healing of mucosal breaks and symptoms; type: in vivo, human; conditions: for overall healing rate, proportion of subjects whose mucosal breaks were completely healed / overall healing rate, number of subjects whose mucosal breaks were completely healed: H. pylori-positive and -negative groups together
Experimental: H. pylori testing was performed by 13C-urea breath test (13C-UBT), gastroscopy (Campylobacter-like organism test, CLO), or tissue biopsy to confirm H. pylori positivity/negativity. The testing was performed at the screening visit (Visit 1) or the randomization visit (Visit 2), and results from the same institution within 29 days prior to the randomization visit (Visit 2) could be substituted. This clinical trial was a randomized, double-blind, active-controlled, multicenter, phase 2 clinical trial targeting patients with erosive gastroesophageal reflux disease. After the subjects gave written consent to participate in the clinical trial, a screening test was conducted. When the subjects were taking drugs that could affect the gastric mucosa at the time of screening, an upper gastrointestinal endoscopy was performed after a 2-week drug-free period (a 4-week drug-free period for potassium-competitive acid blockers (P-CABs) or proton pump inhibitors (PPIs)). […] At this time, the subjects were stratified by grade (A, B, C, D) according to the LA classification system classified by upper gastrointestinal endoscopy. Randomly assigned subjects took the clinical trial drug once a day according to the assigned administration group for four weeks. After four weeks of administration of the clinical trial drug, the subjects visited the clinical trial institution to undergo an upper gastrointestinal endoscopy to assess whether they were healed. Healed subjects underwent a Safety Follow-Up (F/U) two weeks later, and unhealed subjects were administered the clinical trial drug for additional four weeks (a total of 8 weeks of administration) and visited the clinical trial institution to undergo an upper gastrointestinal endoscopy. […] Days of achieving complete remission (CR, disappearance of heartburn and acid reflux for seven days) after the administration of the clinical trial drug • D. Proportion of symptom-free days (heartburn, acid reflux, heartburn/acid reflux) for 4 and 8 weeks after the administration of the clinical trial drug (daytime, nighttime, daytime/nighttime) • ③ Changes in frequency and severity of major symptoms at week 4 and week 8 of the clinical trial drug administration compared to the gastroesophageal reflux disease questionnaire (RDQ) baseline • ④ Changes in total score at week 4 and week 8 of the clinical trial drug administration compared to the GERD Health-Related Quality of Life (GERD-HRQL) baseline The proportion of subjects whose erosions recovered to normal mucosa from the first administration of the clinical trial drug up to week 8 and the two-sided 95% confidence intervals were presented by administration group. […] Days of achieving CR (disappearance of heartburn and acid reflux for seven days) after the administration of the clinical trial drug: When the symptom score is 0 for seven consecutive days after the first administration of the clinical trial drug, it was defined as CR (disappearance of heartburn and acid reflux for seven days), and the event was based on the first CR. When there was no CR, the case was considered as censoring.

| SMILES | MBC [1] | Number of healed subjects, (%) ([2]; full analysis set (FAS), week 4, 20 mg once a day, 28 subjects) | Number of healed subjects, (%) ([2]; per protocol set (PPS), week 4, 20 mg once a day, 26 subjects) | Healing rate, (%) ([3]; H. pylori-negative group, week 4, 10 mg once a day, N=41) | Healing rate, (%) ([3]; H. pylori-negative group, week 4, 20 mg once a day, N=42) | Healing rate, (%) ([3]; H. pylori-negative group, week 8, 10 mg once a day, N=41) | Healing rate, (%) ([3]; H. pylori-negative group, week 8, 20 mg once a day, N=42) | overall healing rate, proportion of subjects whose mucosal breaks were completely healed ([3]; week 4, 10 mg once a day, 48 people) | overall healing rate, number of subjects whose mucosal breaks were completely healed ([3]; week 4, 10 mg once a day, of 48 people) | overall healing rate, proportion of subjects whose mucosal breaks were completely healed ([3]; week 4, 20 mg once a day, 47 people) | overall healing rate, number of subjects whose mucosal breaks were completely healed ([3]; week 4, 20 mg once a day, of 47 people) | Healing rate, (%) ([3]; H. pylori-positive group, week 4, 10 mg once a day, N=7) | Healing rate, (%) ([3]; H. pylori-positive group, week 4, 20 mg once a day, N=5, citrate salt) | Healing rate, (%) ([3]; H. pylori-positive group, week 8, 10 mg once a day, N=7) | Healing rate, (%) ([3]; H. pylori-positive group, week 8, 20 mg once a day, N=5, citrate salt) | Number of healed subjects, (%) ([2]; full analysis set (FAS), week 4, 40 mg once a day, 25 subjects) | Healing rate, (%) ([3]; H. pylori-negative group, week 8, 40 mg once a day, N=41) | overall healing rate, number of subjects whose mucosal breaks were completely healed ([3]; week 4, 40 mg once a day, of 49 people) |
| --- | --- | --- | --- | --- | --- | --- | --- | --- | --- | --- | --- | --- | --- | --- | --- | --- | --- | --- |
| Cc1cccc(C)c1CNc1cc(C(=O)N2CCC2)cn2c(C)c(C)nc12.O=C(O)CC(O)(CC(=O)O)C(=O)O [JP-1366, azetidin-1-yl{8-[(2,6-dimethylbenzyl)amino]-2,3-dimethylimidazo[1,2-a]pyridin-6-yl}methanone citrate salt] | 16~323 | 96.43% | 100.00% | 95.12% | 90.48% | 97.56% | 97.62% | 93.75% | 45 people | 91.49% | 43 people | 85.71% | 100% | 100.00% | 100% | – | – | – |
| COc1ccc2nc([S@@+]([O-])Cc3ncc(C)c(OC)c3C)[nH]c2c1 [Esomeprazole, Esomeprazole magnesium trihydrate, reference compound] | – | – | – | – | – | – | – | – | – | – | – | – | – | – | – | 80.00% | 97.56% | 44 people |

From patent EP4817613A1, “COMPOSITION FOR ERADICATING HELICOBACTER PYLORI COMPRISING ZASTAPRAZAN OR PHARMACEUTICALLY ACCEPTABLE SALT THEREOF” (Jeil Pharmaceutical Co., Ltd., priority 2023, dated 2025)
